From US9006185B2, “Use of cell-permeable peptide inhibitors of the JNK signal transduction pathway for the treatment of various diseases” (Xigen Inflammation Ltd., priority 2008, dated 2015)
Where two headings read alike, the source gives them in different places. Square brackets hold non-standard residues; d marks the D form. Ends that are not written are not given here.

What was measured:
[1] = test system: gerbil; conditions: transient global ischemia; cited from earlier work
[2] = test system: chick embryonic dorsal root ganglion, sympathetic, ciliary and motor neurons; conditions: cited from earlier work
[3] = test system: primary embryonic cultures and differentiated PC12 cells; conditions: after trophic withdrawal; cited from earlier work
[4] = test system: TC-3 cells; test: Cellular import of fluorescein-labeled TAT and TAT-IB1(s) peptides; format: cell-based
Description: The ability of the L- and D-enantiomeric forms of TAT and TAT-IB1(s) peptides (“TAT-IB peptides”) to enter cells was evaluated. L-TAT, D-TAT, L-TAT-IB1(s), and D-TAT-IB1(s) peptides [SEQ ID NOs: 5, 6, 9 and 12, respectively] were labeled by N-terminal addition of a glycine residue conjugated to fluorescein. Labeled peptides (1 μM) were added to TC-3 cell cultures, which were maintained as described in Example 3. At predetermined times cells were washed with PBS and fixed for five minutes in ice-cold methanol-acetone (1:1) before being examined under a fluorescence microscope. Fluorescein-labeled BSA (1 μM, 12 moles/mole BSA) was used as a control.
Little to no signal was present at 48 hours.
Fluorescent signals from these all-D retro-inverso peptides were still very strong 1 week later, and the signal was only slightly diminished at 2 weeks post treatment.

[5] = test system: JNK; conditions: JBDs; cited from earlier work
[6] = test system: TC-3 cells; test: IL-1 induced pancreatic beta-cell death, peptide treatment; format: cell-based; conditions: one single addition 1 μM, two days of incubation with IL-1
Description: Inhibition of IL-1 induced pancreatic beta-cell death by the D-TAT-IB1(s) peptide was analyzed. TC-3 cells were incubated as described above for 30 minutes with one single addition of the indicated peptides (1, μM), then IL-1 (10 ng/ml) was added.
Apoptotic cells were then counted after two days of incubation with IL-1 by use of Propidium Iodide and Hoechst 33342 nuclear staining. A minimum of 1,000 cells were counted for each experiment. Standard Error of the Means (SEM) are indicated, n=5.
Long term inhibition of IL-1P induced cell-death by the D-TAT-IB1 peptide was also analyzed. TC-3 cells were incubated as above for 30 minutes with one single addition of the indicated peptides (1 μM), then IL-1 (10 ng/ml) was added, followed by addition of the cytokine every two days. Apoptotic cells were then counted after 15 days of incubation with IL-1 by use of propidium iodide and Hoechst 33342 nuclear staining. […] A minimum of 1.000 cells were counted for each experiment.

[7] = fluorescein labeled, 1 μM, TC-3 cells

Compound: N#CC(c1ccnc(NCCc2cccnc2)n1)c1nc2ccccc2s1 (centres unmarked) [AS601245]
- delayed loss of hippocampal CA1 neurons [1]: significant protection against the delayed loss of hippocampal CA1 neurons

Compound: CCSCc1ccc2c(c1)c1c3c(c4c5cc(CSCC)ccc5n5c4c1n2[C@H]1C[C@](O)(C(=O)OC)[C@]5(C)O1)CNC3=O [CEP-1347]
- long term survival of cultured neurons [2]: promote long term-survival
- neuronal survival [3]: promotes neuronal survival at dosages that inhibit activation of the c-Jun amino-terminal kinases

Compound: Fluorescein-labeled BSA: fluorescein labeled bovine serum albumin, 12 moles fluorescein/mole BSA, control [reference compound]
- entry into cells (fluorescence microscopy) [4]: did not enter the cells

Compound: GRKKRRQRRR (Description of sequence Peptide L-TAT (see Table 1))
- entry into cells (fluorescence microscopy) [4, 7]: efficiently and rapidly (less than five minutes) entered cells

Compound: GRKKRRQRRRPPRPKRPTTLNLFPQVPRSQD [L-TAT-IB1(s)]
- entry into cells (fluorescence microscopy) [4, 7]: efficiently and rapidly (less than five minutes) entered cells

Compound: IPSPSVEEPHKHRPTTLRLTTLGAQDS (Description of sequence Peptide IB2-long (see Table 1))
- efficiency in binding JNK relative to c-Jun or ATF2 [5]: approximately 100 fold

Compound: PGTGCGDTYRPKRPTTLNLFPQVPRSQDT (Description of sequence peptide IB1-long (see Table 1))
- efficiency in binding JNK relative to c-Jun or ATF2 [5]: approximately 100 fold

Compound: RRRQRRKKRG (D-amino acids; Description of sequence Peptide D-TAT (see Table 1))
- entry into cells (fluorescence microscopy) [4]: efficiently and rapidly (less than five minutes) entered cells
- stability inside the cells [4]: extremely stable inside the cells

Compound: TDQSRPVQPFLNLTTPRKPRYTDPPRRRQRRKKRG (H-[dT][dD][dQ][dS][dR][dP][dV][dQ][dP][dF][dL][dN][dL][dT][dT][dP][dR][dK][dP][dR][dY][dT][dD][dP][dP][dR][dR][dR][dQ][dR][dR][dK][dK][dR]G-OH) [D-TAT-IB1]
- IL-1 induced apoptosis [6]: decreased IL-1 induced apoptosis to a similar extent as L-TAT-IB peptides
